These results are taken from patent publication US12129265B2, “Therapeutic agents and uses thereof” (Ankh Life Sciences Limited, priority 2020, dated 2024).

pIC50: −log10 of the molar value. Converted amounts (≈) assume the structure as drawn. Where two headings read alike, the source gives them in different places.

Data set [1] relates to Human Myeloma, Human Lymphoma, Solid Human tumor and Jeko-1 tumor cell lines. Description: CellTiter-Glo in vitro cell proliferation assay, Example 8, whole panel. It counts as cell-based. The conditions noted are these: for IC50 values compared with the monoharmaline 518F014 compound: 72 hours, cell lines of Table 14. The procedure: In this Example, in vitro cell proliferation assays were performed using: (1) Human Myeloma tumor cell lines; (2) Human Lymphoma tumor cell lines; (3) Solid Human tumor cell lines; and (4) Parental, Lenalidomide resistant and Bortezomib resistant Jeko-1 Mantle cell Lymphoma tumor cell lines. The compounds tested were three diharmaline compounds, namely the 518B562 (or simply 562), 560, and 561 compounds. In addition, a monoharmaline product designated as 518F014 was also tested. This monoharmaline product had the following structure:
Each proliferation assay was carried out as follows. The test cells were plated in growth media using a 384-well microtiter plate at 50 μL volume. The cells were incubated for 24 hours at 37° C. in a humidified incubator. After 24 hours of incubation, the test compounds were added to the test wells in DSMO solvent, at concentrations ranging from 0.0075-100 μM. Control wells received equal volumes of DSMO, without compound. Following drugging, the cells were incubated for 72 hours at 37° C. in a humidified incubator. After this exposure, 100 μL of a 1:1 mixture of sterile water and CellTiter-Glo® reagent (Promega) was added to each well. The plates were then incubated for 60 minutes at room temperature, followed by recording the luminescence value of each well using a luminometer as a measure of cell proliferation.

The next data set relates to BxPC-3 cells. The data set is described as follows: CellTiter-Glo in vitro cell proliferation assay, Example 8. The conditions noted are these: Homo sapiens, BxPC-3, Pancreatic; for IC50: Example 24; for pIC50: 72 hours, read-out: Mean IC50. The data set is classed as cell-based, Human. The method, boiled down: (§1)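 Test compounds span 0.0075–100 μM, delivered in DMSO one day after seeding. Cultures are kept 72 h at 37 °C in humidified air before a CellTiter-Glo luminescent readout taken after 60 min at room temperature.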

The next data set deals with MOLP-8 cells. Described as above. The data set is classed as cell-based, Human. The settings on record: for IC50: Example 24, MOLP-8, human myeloma; for pIC50: MOLP-8, Human Myeloma, 72 hours, read-out: Mean IC50. In a few lines: as §1
Another data set deals with FaDu cells. The description is as above. The data set is classed as cell-based, Human. The conditions noted are these: Homo sapiens; for IC50: Example 24, Squamous; for pIC50: Squamous, 72 hours, read-out: Mean IC50. The method, boiled down:
as §1

Another data set has as its system KMS-27 cells. The description is as above. The settings on record: for IC50: Example 24, KMS-27, human myeloma; for pIC50: KMS-27, Human Myeloma, 72 hours, read-out: Mean IC50. It counts as cell-based, Human. In a few lines:
as §1

A further data set relates to AN3CA cells. The data set is described as above. It counts as cell-based, Human. The settings on record: Homo sapiens, AN3-CA; for IC50: Example 24, Endometrial; for pIC50: Endometrial, 72 hours, read-out: Mean IC50. The method, boiled down: as §1
The subject of a further data set is KMS-34 cells. The data set is described as above. The conditions noted are these: for IC50: Example 24, KMS-34, human myeloma; for pIC50: KMS-34, Human Myeloma, 72 hours, read-out: Mean IC50. The data set is classed as cell-based, Human. The method, boiled down:
as §1

For another data set, the system named is MIA PaCa-2 cells. The data set is described as above. The conditions noted are these: Homo sapiens, MIA PaCa-2, Pancreatic; for IC50: Example 24; for pIC50: 72 hours, read-out: Mean IC50. The data set is classed as cell-based, Human. The method, boiled down: as §1
Another data set has as its system MiaPaCa-2 cells. The data set is described as follows: Cell colony formation assay, Example 16. It counts as cell-based, human. The procedure:
(§2) In this example, the 560 and 562 compounds of Examples 12 and 14, respectively, were tested using cell colony formation assays. 500 viable S2-007 and MiaCaPa-2 cells were plated in six-well dishes and allowed to grow for 24 hours. The cells were then incubated in the presence or absence of the 560 and 562 compounds for 72 hours. The compound-containing media were then removed, and the cells were washed in PBS and incubated for an additional 10 days in complete media. The resultant colonies were then washed in PBS and fixed using 10% formalin for 10 minutes at room temperature, followed by washing with PBS and staining with Crystal Violet. The colonies of the control and compound-supplemented assays were then counted and compared.

A further data set deals with S2-007 cells. The data set is described as follows: Cell colony formation assay, Example 16. The data set is classed as cell-based, human. The settings on record: 4 μg and 6 μg, 24, 48, and 72 hours, FIG. 123. The procedure:
as §2

Data set [2] concerns Jeko-1 Bortezomib resistant cells. Description: CellTiter-Glo in vitro cell proliferation assay, Example 8. It counts as cell-based. The settings on record: Homo sapiens, Mantle Cell Lymphoma, 72 hours. The method, boiled down: as §1
(In general: ATP-based viability assays read luminescence as a measure of living cells.)

Another data set relates to Jeko-1 Parental cells. The data set is described as above. The data set is classed as cell-based. The conditions noted are these: Homo sapiens, Mantle Cell Lymphoma, 72 hours. In a few lines: as §1
In data set [3] the test system is Jeko-1 Lenalidomide resistant cells. The description is as above. The data set is classed as cell-based. The settings on record: Homo sapiens, Mantle Cell Lymphoma, 72 hours. The method, boiled down: as §1
The nature of data set [4]: Solubility observation on acid addition. It counts as physicochemical. The settings on record: addition of an acid such as hydrochloric acid to reduce the pH of the product. The procedure:
The 518B562 compound was prepared by mixing together particulate harmaline and vanillin at a weight ratio of about 2:1 (vanillin:harmaline), followed by adding ethanol to a final concentration of the reactions of from about 10-100 mg/mL. This mixture is then allowed to sit for approximately 3 days at 50° C. A bluish solid forms, which is filtered and washed with methanol, and recovered.

Data set [5] relates to Mia-PaCa2 pancreatic cancer cells. Description: Proliferation assay, Example 10. The data set is classed as cell-based, human. The procedure:
In this Example, pancreatic cancer cells (S2-007 and Mia-PaCa2) were treated with the previously described compound 518B562 at different times and concentrations, followed by generation of proliferation assays using the techniques described above. […] After 72 hours of treatment, the IC50 values of the compound against S2-007 and Mia-PaCa2 cells was determined as 3 μg/mL and 5 μg/mL, respectively.

For data set [6], the system named is gene expression in S2-007 human pancreatic cancer cells. Description: RNA-Seq clustergram/heat map of cancer stem cell markers, Example 11. The data set is classed as cell-based. The settings on record: 5 micro-g/mL. The procedure:
In this Example, a clustergram/heat map of RNA sequences for cancer stem cell (CSC) markers was performed before and after treatment of S2-007 human pancreatic cancer cells with 518B562. This experiment was conducted using a Whole Transcriptome Shotgun Sequence (WTSS), followed by bioinformatics data analysis of CSC markers. An RNA-Seq/heat map was generated to obtain a genome-wide gene expression profile of the pancreatic cancer cells.
One sample of the pancreatic cancer cell line was untreated, while an identical sample was treated with 5 micro-g/mL of 518B562. Comparative RNA sequences were performed on the samples using an Illumina HISeq 2500 sequencer at a 100 bp single read resolution. The sequence readings were mapped to the human genome (assembly GRCh38.re177) using the STAR software (Dobin et al. 2012). Transcript abundance estimates were generated using the Cufflinks software (Trapnell et al. 2010) and differential gene expression estimates were calculated using the Cuffdiff software (Trapnell et al. 2013). RNA-Seq generated around […], of which between 97.2% and 98.3% of the reads mapped to the reference genome.

For the compound `COc1ccc2c3c([nH]c2c1)C(CC(CC1=NCCc2c1[nH]c1cc(OC)ccc21)c1cccc(Oc2ccccc2)c1)=NCC3` [compound 594, diharmaline 3-phenoxybenzaldehyde], in data set [1] (cell lines of Table 16), the “effectiveness in cell proliferation assays” value is given as “effective against a wide variety of cancer cells”. Further, the IC50 worked out at 3.39 µg/mL in the data set with BxPC-3 cells (read-out: Mean); 3.45 µg/mL in the data set on BxPC-3 cells (read-out: Trial A); 3.33 µg/mL with BxPC-3 cells (read-out: Trial B); 2.72 µg/mL in the data set on MOLP-8 cells (read-out: Mean); 2.73 µg/mL in the data set on MOLP-8 cells (read-out: Trial A); 2.7 µg/mL in the data set on MOLP-8 cells (read-out: Trial B). Also, the IC50 turned out to be 4.62 µg/mL with FaDu cells (read-out: Mean); 3.78 µg/mL in the data set with FaDu cells (read-out: Trial A); 5.45 µg/mL in the data set on FaDu cells (read-out: Trial B); 4.14 µg/mL in the data set on KMS-27 cells (read-out: Mean); 5.54 µg/mL in the data set with KMS-27 cells (read-out: Trial A); 2.73 µg/mL in the data set on KMS-27 cells (read-out: Trial B). Besides, the IC50 turned out to be 2.79 µg/mL with AN3CA cells (read-out: Mean); 2.79 µg/mL in the data set with AN3CA cells (read-out: Trial A); 2.8 µg/mL with AN3CA cells (read-out: Trial B); 3.89 µg/mL with KMS-34 cells (read-out: Mean); 4.23 µg/mL with KMS-34 cells (read-out: Trial A); 3.55 µg/mL in the data set with KMS-34 cells (read-out: Trial B). Moreover, the IC50 came out at 3.49 µg/mL in the data set on MIA PaCa-2 cells (read-out: Mean), 3.81 µg/mL in the data set on MIA PaCa-2 cells (read-out: Trial A) and 3.17 µg/mL with MIA PaCa-2 cells (read-out: Trial B).
As usually defined, the pIC50 is the negative decadic logarithm of the IC50, by convention in mol/L. `COc1ccc2c3c([nH]c2c1)C(CC(CC1=NCCc2c1[nH]c1cc(OC)ccc21)c1ccccc1)=NCC3` [compound 560]: the colony formation result in the data set on MiaPaCa-2 cells (3 μg and 5 μg, 24, 48, and 72 hours, FIG. 124) is on record as “significantly disrupted colony formation at both levels of use”; in the data set with S2-007 cells it was “significantly disrupted colony formation, particularly at the 6 μg level of use”. Further, the “IC50 values compared with the monoharmaline 518F014 compound” value in data set [1] is recorded as “significantly lower IC50 values”. Besides, the pIC50 was 5.58 with BxPC-3 cells; 5.54 in the data set with MOLP-8 cells; 5.69 in the data set on FaDu cells; 5.40 in the data set on KMS-27 cells; 5.57 in the data set with AN3CA cells; 5.18 in the data set on KMS-34 cells. Besides, the negative-log IC50 (pIC50) is 5.47 with MIA PaCa-2 cells, 5.39 in [2], 5.33 with Jeko-1 Parental cells and 5.29 in data set [3].
In the case of `COc1ccc2c3c([nH]c2c1)C(CC(CC1=NCCc2c1[nH]c1cc(OC)ccc21)c1ccc(O)c(OC)c1)=NCC3` [compound 562], the colony formation result in the data set on MiaPaCa-2 cells (3 μg, 7 μg, 10 μg, and 12 μg, 24, 48, and 72 hours, FIG. 127) is given as “significantly disrupted colony formation, particularly at the higher levels of use”. The solubility entry in data set [4] was “increased the solubility thereof”. In addition, the “IC50 values compared with the monoharmaline 518F014 compound” value in [1] is “significantly lower IC50 values”. The compound further returned an IC50 in data set [5] (Homo sapiens, MIA PaCa-2, after 72 hours of treatment) of 5 µg/mL (≈ 8.89 µM). Also, the inhibition of proliferation result in data set [5] (doses of 1-25 μg/mL, time-dependent, 24-72 hours) was “significantly inhibited the proliferation”. The pIC50 was 5.80 in the data set with BxPC-3 cells; 5.86 in the data set with MOLP-8 cells; 5.70 with FaDu cells; 5.68 in the data set with KMS-27 cells; 5.75 in the data set on AN3CA cells; 5.26 with KMS-34 cells. Also, the pIC50 was 5.74 in the data set with MIA PaCa-2 cells, 5.32 in [2], 5.36 with Jeko-1 Parental cells and 5.21 in data set [3]. Also, the “angiogenesis markers [OXTR, SYCP2, CRHR1, SPEG]” value in [6] was “down-regulated”. In [6], the “anti-apoptotic markers [TUG1, FABP1, PI3, DOKS]” value is “down-regulated”. Also, the “anti-proliferative markers [NRP1, ATF2A, CYP1b1, ALPP, DEPTOR, MT1F]” value in data set [6] is “up-regulated”. For the same compound, the “apoptotic markers [ICAM5, WNK4, ALPP, LTRC26, SHBG, MT1X]” value in [6] is on record as “up-regulated”. Moreover, in data set [6], the “proliferation signaling markers [FOXj1, SPP1, C3]” value was “down-regulated”.
